Laboratory results from the NIST ThermoML archive (doi:10.1016/j.jct.2013.09.039).

Experiment: xn = mol fraction of the nth substance listed
Settings: Liquid, Vibrating tube method

CCOC(=O)OCC [diethyl carbonate] + Cc1ccc(C)cc1
mass density [kg/m3]
Settings	100 kPa	5000 kPa	10000 kPa	20000 kPa	30000 kPa	40000 kPa
288.15 K, x1 = 0.1014	876.7	880.1	883.7	890.3	896.1	902.1
288.15 K, x1 = 0.1346	879.5	884.1	887.8	894.3	900.3	906.3
288.15 K, x1 = 0.1949	887.5	891.2	894.8	901.3	907.5	913.4
288.15 K, x1 = 0.2767	898.3	900.9	904.5	911.3	917.4	923.5
288.15 K, x1 = 0.386	909.2	913.4	917.2	924.1	930.4	936.6
288.15 K, x1 = 0.4858	920.7	924.7	928.5	935.5	941.9	948.3
288.15 K, x1 = 0.5444	928.4	931.5	935.3	942.5	949.1	955.4
288.15 K, x1 = 0.5923	933.9	937	941	948	954.7	961.2
288.15 K, x1 = 0.6718	942.3	946.4	950.3	957.5	964.3	970.9
288.15 K, x1 = 0.7676	953.2	957.4	961.3	968.7	975.6	982.3
288.15 K, x1 = 0.8313	960.6	964.8	968.9	976.4	983.3	990.1
288.15 K, x1 = 0.9044	968.7	973.1	977.2	984.7	991.9	998.6
298.15 K, x1 = 0.1014	867.6	871.9	875.1	–	–	–
298.15 K, x1 = 0.1346	871.5	875.8	879	–	–	–
298.15 K, x1 = 0.1949	878.1	882.4	885.8	–	–	–
298.15 K, x1 = 0.2767	887.5	892	895.4	–	–	–
298.15 K, x1 = 0.386	899.8	904.4	907.7	–	–	–
298.15 K, x1 = 0.4858	910.7	915.2	918.8	–	–	–
298.15 K, x1 = 0.5444	916.8	922	925.6	–	–	–
298.15 K, x1 = 0.5923	922.8	927.4	931.1	–	–	–
298.15 K, x1 = 0.6718	931.7	936.5	940.3	–	–	–
298.15 K, x1 = 0.7676	942.4	947.3	951	–	–	–
298.15 K, x1 = 0.8313	949.8	954.7	958.4	–	–	–
298.15 K, x1 = 0.9044	957.6	962.7	966.6	–	–	–
